Data reported in PubChem BioAssay AID1963832 (Molecular Pharmacology Branch, DTP, NCI, 2024).

Test system: 885724-159-R-J1-PDC complex spheroid viability
Assay: Anticancer human tumor 885724-159-R-J1-PDC patient-derived pancreatic adenocarcinoma cell line growth inhibition [POLQ]
Conditions: for IC50: curve of first compound; for viability, T/C: stronger effect = lower value
Description: Multicellular complex tumor spheroid response to Polymerase (POL) inhibitors (novobiocin, ART-558, RP6685) in combination with a variety of drugs and investigational agents in selected tumor cell lines
The POL inhibitors (novobiocin, ART-558, and RP6685) were evaluated both individually and in combination with standard of care and investigational anticancer small molecules within a complex spheroid model of solid tumors. . Complex spheroids include a stromal component modeled by human endothelial cells (HUVEC) and fibroblasts modeled by human mesenchymal stem cells (MSCs). The concentration ranges selected for each drug and investigational agent were based upon clinically achievable concentrations if the clinical Cmax of the agent was known.
Compounds. The drugs and investigational agents: novobiocin (NSC847541), ART-558 (NSC835418), RP-6685 (NSC848927), peposertib (NSC802822), ceralasertib (NSC780249), elimusertib (NSC800525), camonsertib (NSC841442), AZD-1390 (NSC803789), olaparib (NSC753686), talazoparib (NSC767125), rucaparib (NSC756644), sotorasib (NSC818433), MRTX-1133 (NSC836407), SN-38 (NSC673596), topotecan (NSC609699), epotoside (NSC141540), doxorubicin (NSC123127), gemcitabine (NSC613327), 5-fluorouracil (NSC19893), paclitaxel (NSC125973), vemurafenib (NSC761431), MSA-2 (NSC828583), SN-011 (NSC837082), adavosertib (NSC754352), prexasertib (NSC758257), carboplatin (NSC241240) and oxaliplatin (NSC266046), were obtained from the National Cancer Institute (NCI) Developmental Therapeutics Program Chemical Repository (21). The FDA-approved anticancer drug set is available from the Developmental Therapeutics Program at https://dtp.cancer.gov/organization/dscb/obtaining/. […] The stock solutions were prepared in dimethyl sulfoxide (DMSO, Sigma-Aldrich, St. Louis, MO, cat. D2650), except for the platinum compounds which were prepared in saline (Quality Biological, Gaithersburg, MD, cat. 114-055-101), at 800-fold the tested concentration and stored at -70 degrees C prior to their use. All drugs and investigational agents were tested over a range starting from a high concentration at or near the clinical Cmax and decreasing in half-log increments. If the clinical Cmax for an agent had not been determined, the highest concentration tested was 10 microM, except for SN-38, which was tested at a high concentration of 1 microM.
Cell Culture. All cells were maintained in an incubator at 37 degrees C and 5% CO2 with 95% humidity. The PDC lines were cultured according to standard operating procedures established by the NCI PDMR (https://pdmr.cancer.gov). Table 3 of the manuscript, lists the cell lines along with the number of the three cell types plated to form the mct-spheroids and media for tumor cell growth. After thawing, all PDC lines, except 997537-175-T-J1-PDC and 415267-285-R-J2-PDC, were cultured in Matrigel-coated flasks prepared with a working solution of 1X Ham's F-12 nutrient mix, without supplementation (Thermo Fisher Scientific, cat. 11765054), 100 U/mL penicillin-streptomycin (Thermo Fisher Scientific, cat. 15140122), and 2.5% Matrigel (Corning Inc., Corning, NY, cat. 354248) for the first three passages. The two PDC lines 997537-175-T-J1-PDC and 415267-285-R-J2-PDC were cultured on uncoated flasks. The 857933-349-R-J2-PDC line was cultured in 6C/Colon 1B media containing advanced DMEM/F-12 (Thermo Fisher Scientific, cat. 12634028), 10 mM HEPES (Thermo Fisher Scientific, cat. 15630080), 1X GlutaMAX supplement (Thermo Fisher Scientific, cat. 35050061), 0.1 mg/mL primocin (InvivoGen, San Diego, CA, cat. ant-pm-2), 10% defined fetal bovine serum, heat inactivated (HyClone Laboratories Inc., Logan, UT, cat. SH30070.03HI), 50% L-WRN conditioned media (ATCC, cat. CRL-3276), 1.25 mM N-Acetyl-L-cysteine (Sigma-Aldrich, cat. A9165), 10 mM nicotinamide (Sigma-Aldrich, cat. N0636), 1X B-27 supplement (Thermo Fisher Scientific, cat. 17504044), 1X N-2 supplement (Thermo Fisher Scientific, cat. […]

[1] = second compound 0.0316 µM, first compound 0.0316 µM
[2] = second compound 0.0316 µM, first compound 0.1 µM
[3] = second compound 0.0316 µM, first compound 0.316 µM
[4] = second compound 0.0316 µM, first compound 1 µM
[5] = second compound 0.0316 µM, first compound 3.16 µM
[6] = second compound 0.0316 µM, first compound 10 µM
[7] = second compound 0.1 µM, first compound 0.0316 µM
[8] = second compound 0.1 µM, first compound 0.1 µM
[9] = second compound 0.1 µM, first compound 0.316 µM
[10] = second compound 0.1 µM, first compound 1 µM
[11] = second compound 0.1 µM, first compound 3.16 µM
[12] = second compound 0.1 µM, first compound 10 µM
[13] = second compound 0.316 µM, first compound 0.0316 µM
[14] = second compound 0.316 µM, first compound 0.1 µM
[15] = second compound 0.316 µM, first compound 0.316 µM
[16] = second compound 0.316 µM, first compound 1 µM
[17] = second compound 0.316 µM, first compound 3.16 µM
[18] = second compound 0.316 µM, first compound 10 µM
[19] = second compound 1 µM, first compound 0.0316 µM
[20] = second compound 1 µM, first compound 0.1 µM
[21] = second compound 1 µM, first compound 0.316 µM
[22] = second compound 1 µM, first compound 1 µM
[23] = second compound 1 µM, first compound 3.16 µM
[24] = second compound 1 µM, first compound 10 µM
[25] = second compound 3.16 µM, first compound 0.0316 µM
[26] = second compound 3.16 µM, first compound 0.1 µM
[27] = second compound 3.16 µM, first compound 0.316 µM
[28] = second compound 3.16 µM, first compound 1 µM
[29] = second compound 3.16 µM, first compound 3.16 µM
[30] = second compound 3.16 µM, first compound 10 µM
[31] = second compound 10 µM, first compound 0.0316 µM
[32] = second compound 10 µM, first compound 0.1 µM
[33] = second compound 10 µM, first compound 0.316 µM
[34] = second compound 10 µM, first compound 1 µM
[35] = second compound 10 µM, first compound 3.16 µM
[36] = second compound 10 µM, first compound 10 µM
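Note: spheroids exposed to compounds for 7 days.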

Compound: COc1ccc([C@@H](O)c2cc(-c3ncnc4cc(N5CCOCC5)ccc34)c(F)cc2Cl)nn1 + Nc1ccc(C#CCN(C(=O)Cc2ncc(C(F)(F)F)cc2C(F)(F)F)c2ccc(F)cc2)nn1
- IC50 (second compound 0.0316 µM): 3.7 µM
- IC50 (second compound 0.1 µM): 3.83 µM
- IC50 (second compound 0.316 µM): 4.24 µM
- IC50 (second compound 1 µM): 4.29 µM
- IC50 (second compound 3.16 µM): 3.94 µM
- IC50 (second compound 10 µM): 4.85 µM
- viability, T/C [1]: 83.2%
- viability, T/C [2]: 105%
- viability, T/C [3]: 73.6%
- viability, T/C [4]: 74.9%
- viability, T/C [5]: 52.3%
- viability, T/C [6]: 33.1%
- viability, T/C [7]: 100%
- viability, T/C [8]: 89.6%
- viability, T/C [9]: 84.4%
- viability, T/C [10]: 75.1%
- viability, T/C [11]: 51%
- viability, T/C [12]: 32.9%
- viability, T/C [13]: 98.7%
- viability, T/C [14]: 103%
- viability, T/C [15]: 86%
- viability, T/C [16]: 73%
- viability, T/C [17]: 57.5%
- viability, T/C [18]: 32.8%
- viability, T/C [19]: 92.8%
- viability, T/C [20]: 86.3%
- viability, T/C [21]: 81.5%
- viability, T/C [22]: 69.5%
- viability, T/C [23]: 57.5%
- viability, T/C [24]: 33.3%
- viability, T/C [25]: 91.5%
- viability, T/C [26]: 93.9%
- viability, T/C [27]: 82.9%
- viability, T/C [28]: 67.8%
- viability, T/C [29]: 56%
- viability, T/C [30]: 33.5%
- viability, T/C [31]: 96.7%
- viability, T/C [32]: 89.4%
- viability, T/C [33]: 87.4%
- viability, T/C [34]: 70.6%
- viability, T/C [35]: 59.1%
- viability, T/C [36]: 36.6%

Compound: O=C(c1cc(Cc2n[nH]c(=O)c3ccccc23)ccc1F)N1CCN(C(=O)C2CC2)CC1 + Nc1ccc(C#CCN(C(=O)Cc2ncc(C(F)(F)F)cc2C(F)(F)F)c2ccc(F)cc2)nn1
- IC50 (second compound 0.0316 µM): > 10 µM
- IC50 (second compound 0.1 µM): > 10 µM
- IC50 (second compound 0.316 µM): > 10 µM
- IC50 (second compound 1 µM): > 10 µM
- IC50 (second compound 3.16 µM): > 10 µM
- IC50 (second compound 10 µM): > 10 µM
- viability, T/C [1]: 90.7%
- viability, T/C [2]: 97.2%
- viability, T/C [3]: 95.1%
- viability, T/C [4]: 88.2%
- viability, T/C [5]: 89.4%
- viability, T/C [6]: 80.4%
- viability, T/C [7]: 95%
- viability, T/C [8]: 94.5%
- viability, T/C [9]: 85.7%
- viability, T/C [10]: 96.7%
- viability, T/C [11]: 84.1%
- viability, T/C [12]: 77.6%
- viability, T/C [13]: 85.4%
- viability, T/C [14]: 94.5%
- viability, T/C [15]: 100%
- viability, T/C [16]: 87.8%
- viability, T/C [17]: 86.2%
- viability, T/C [18]: 75.8%
- viability, T/C [19]: 101%
- viability, T/C [20]: 90.6%
- viability, T/C [21]: 84.6%
- viability, T/C [22]: 99%
- viability, T/C [23]: 88.7%
- viability, T/C [24]: 84%
- viability, T/C [25]: 98%
- viability, T/C [26]: 92%
- viability, T/C [27]: 84.7%
- viability, T/C [28]: 82%
- viability, T/C [29]: 88.1%
- viability, T/C [30]: 80.8%
- viability, T/C [31]: 102%
- viability, T/C [32]: 94.3%
- viability, T/C [33]: 87.4%
- viability, T/C [34]: 94.1%
- viability, T/C [35]: 95.6%
- viability, T/C [36]: 75.6%

Compound: O=c1[nH]cc(F)c(=O)[nH]1 + Nc1ccc(C#CCN(C(=O)Cc2ncc(C(F)(F)F)cc2C(F)(F)F)c2ccc(F)cc2)nn1
- IC50 (second compound 0.0316 µM): > 10 µM
- IC50 (second compound 0.1 µM): > 10 µM
- IC50 (second compound 0.316 µM): > 10 µM
- IC50 (second compound 1 µM): > 10 µM
- IC50 (second compound 3.16 µM): > 10 µM
- IC50 (second compound 10 µM): > 10 µM
- viability, T/C [1]: 88.7%
- viability, T/C [2]: 99.5%
- viability, T/C [3]: 93.2%
- viability, T/C [4]: 101%
- viability, T/C [5]: 100%
- viability, T/C [6]: 75.2%
- viability, T/C [7]: 94%
- viability, T/C [8]: 100%
- viability, T/C [9]: 92.1%
- viability, T/C [10]: 96%
- viability, T/C [11]: 87%
- viability, T/C [12]: 74.9%
- viability, T/C [13]: 100%
- viability, T/C [14]: 98.2%
- viability, T/C [15]: 92.2%
- viability, T/C [16]: 90.9%
- viability, T/C [17]: 89.4%
- viability, T/C [18]: 82.7%
- viability, T/C [19]: 96.9%
- viability, T/C [20]: 88.8%
- viability, T/C [21]: 96%
- viability, T/C [22]: 93.2%
- viability, T/C [23]: 81.3%
- viability, T/C [24]: 71.7%
- viability, T/C [25]: 97.1%
- viability, T/C [26]: 86.4%
- viability, T/C [27]: 86.9%
- viability, T/C [28]: 92.8%
- viability, T/C [29]: 97.5%
- viability, T/C [30]: 71.6%
- viability, T/C [31]: 105%
- viability, T/C [32]: 109%
- viability, T/C [33]: 94%
- viability, T/C [34]: 86.5%
- viability, T/C [35]: 92.8%
- viability, T/C [36]: 81.9%
